Measured values as given in paper PMC5430839, “Deciphering the mode of action of cell wall-inhibiting antibiotics using metabolic labeling of growing peptidoglycan in Streptococcus pyogenes” (Scientific Reports, 2017).
Read-outs that look alike come from different tables or passages of the source.

Assays:
S. pyogenes strain JRS4 [1] = assay: Determination of subbacteriostatic concentrations (growth curve, OD600); assay type: cell-based, Streptococcus pyogenes; conditions: minimum dose at which growth curve plateaus at OD600 <1.0 after 4-h incubation at 37 °C, THY, added at OD600 0.4
Procedure: (§1) S. pyogenes strain JRS4 (M6^+ F1^+) was grown in Todd-Hewitt broth supplemented with 0.3% yeast extract (THY) at 37 °C.
S. pyogenes were grown in THY to an OD600 of 0.4 (exponential phase) at 37 °C and then added a solution of antibiotic of varying concentration. The culture mixture was further incubated for 4 h at 37 °C. Subbacteriostatic concentration in this study is the minimum dose of antibiotic that makes growth curve reach a plateau at OD600 of <1.0 after the 4-h incubation. In the absence of antibiotics, GAS cells grew up to OD600 of approximately 1.6. Subbacteriostatic concentrations were determined for each antibiotic, and mode-of-action analyses were performed at these concentrations (Figs 2, 3, 4, 5, 6 and 7).

S. pyogenes strain JRS4 [2] = assay: Imaging of peripheral growth by FDAA pre-labeling in D-cycloserine/oxacillin-treated cells; assay type: cell-based, Streptococcus pyogenes; conditions: FDAA pre-labeling 1 h, then antibiotic 3 h
Excerpt: The observed enlargement of cells implied that cell wall synthesis could proceed, at least partly, in the presence of these antibiotics at their subbacteriostatic concentrations. We therefore studied the relationship between peripheral growth length and axial length for cells via dual-color staining. Nile red was used to stain the bacterial cell membrane, and the fluorescent D-amino acid (FDAA) labeling[10]–[12] was employed for old cell wall (preexisting prior to antibiotic treatment). In the presence of antibiotic, peripheral growth length was measured as a gap between the old (stained) regions of the preexisting cell wall (Fig. 5A and B).
Bacterial cells grown in THY to an OD600 of 0.2 (exponential phase) at 37 °C, and 100-μL aliquots of culture mixture were taken (Fig. 5). FDAA solution (final concentration = 1 mM; FL-D-Lys for Fig. 5A and E, tetramethylrhodamine- D-Lys for Fig. 5D) was added, and the mixture was incubated for 1 h at 37 °C in the dark. The mixture was centrifuged (12,000 rpm, 2 min, 4 °C), the supernatant was removed, and the pellet was washed with PBS buffer thrice to remove unreacted FDAA. Cells were re-suspended in 100-μL THY and incubated at 37 °C in the dark with antibiotics for 2.5 h. […]

S. pyogenes strain JRS4 [3] = assay: Live cell labeling with sortase A substrate in the presence of antibiotics: phenotype and cell size distribution; assay type: cell-based, Streptococcus pyogenes; conditions: for cells with one or more completed septa among cells with multiple division sites: n = 55 (CBPV), 114 (flavomycin), 105 (ΔNCBPV) cells
Excerpt: Streptococcal cell wall synthesis consists of cylindrical peripheral synthesis and septal synthesis (Fig. 1A). A study using Streptococcus pneumoniae illustrated that the serine-threonine kinase StkP controls the switch from peripheral synthesis to septal synthesis. Splitting of the septum (cell separation) is then mediated by the action of autolysin. We labeled the GAS cell wall using the sortase method in the absence of antibiotics, and the observed labeling patterns of GAS were classified into three phenotypes (Fig. 1A–C). Phenotype A cells are newly divided cells without specific fluorescent labeling. Phenotype B cells are in the peripheral growth stage. A characteristic two-elongated-dot image or an open ring corresponds to peripheral growth near the bacterial division site. Phenotype C cells are in the septal growth stage, and the dividing septum is fluorescently stained. The distribution (%) of phenotypes A, B, and C among cells was 37 ± 2, 47 ± 2, and 16 ± 1, respectively, in log-phase GAS. Data represent the mean ± sem (n = 3). Subsequently, we constructed a histogram of each phenotype population as a function of bacterial cell length, as defined in Fig. 1C (orange, Fig. 1D). The subpopulation of cells with a specific phenotype is overlaid on the total cell size distribution (blue). […] The histograms also illustrate that cells grow from phenotype A, through phenotype B, to phenotype C (followed by cell separation), confirming that peripheral growth precedes septal growth in GAS. We speculated that the changes of this histogram would provide information on antibiotic modes of action.
as §1
Bacterial cells grown in THY to an OD600 of 0.35–0.4 (exponential phase) at 37 °C were exposed to antibiotics and incubated for 1 h, and 100-μL aliquots of culture mixture were taken and added to a solution of sortase substrate (FL-KLPETG-NH2, final concentration = 1 mM). After incubation for 2.5 h at 37 °C in the dark, Nile Red (10 μg/mL) and DAPI (1 μg/mL) were added. The mixture was allowed to stand for 30 min and then centrifuged (12,000 rpm, 2 min, 4 °C). The supernatant was removed, and the pellet was washed thrice with PBS buffer to remove unreacted sortase substrate. Cells were re-suspended in PBS buffer, mounted on a glass slide, and examined by fluorescent microscopy. Images were analyzed manually using ImageJ software (ver. 1.50). Sets of axial- and equatorial-length were also recorded for each cell. At least 200 cells were analyzed in each analysis. All experiments were performed at least thrice, and representative results are shown.

gram-positive strains = conditions: ref many studies; cited from earlier work
[4] = antibiotic at subbacteriostatic conc., mean ± sem, n = 3
[5] = antibiotic at subbacteriostatic conc.

N[C@@H]1CON=C1O [D-Cycloserine]
subbacteriostatic concentration (S. pyogenes strain JRS4 [1]): 100 µg/mL
peripheral growth/axial length relationship (dot blot analysis) (S. pyogenes strain JRS4 [2]): considerably larger than that of oxacillin-treated cells
proportion of cells, phenotype A (no active cell wall synthesis) (S. pyogenes strain JRS4 [3]; [4]): 25 ± 6%
proportion of cells, phenotype B (peripheral growth) (S. pyogenes strain JRS4 [3]; [4]): 68 ± 7%
proportion of cells, phenotype C (septal growth) (S. pyogenes strain JRS4 [3]; [4]): 2 ± 1%
proportion of cells, phenotype D (multiple septa in an elongated cell) (S. pyogenes strain JRS4 [3]; [4]): 5 ± 1%

Cc1onc(-c2ccccc2)c1C(=O)N[C@@H]1C(=O)N2[C@@H]1SC(C)(C)[C@@H]2C(=O)O [Oxacillin]
subbacteriostatic concentration (S. pyogenes strain JRS4 [1]): 4 µg/mL
peripheral growth/axial length relationship (dot blot analysis) (S. pyogenes strain JRS4 [2]): peripheral growth barely contributed to cell enlargement
proportion of cells, phenotype A (no active cell wall synthesis) (S. pyogenes strain JRS4 [3]; [4]): 19 ± 4%
proportion of cells, phenotype B (peripheral growth) (S. pyogenes strain JRS4 [3]; [4]): 60 ± 4%
proportion of cells, phenotype C (septal growth) (S. pyogenes strain JRS4 [3]; [4]): 12 ± 5%
proportion of cells, phenotype D (multiple septa in an elongated cell) (S. pyogenes strain JRS4 [3]; [4]): 9 ± 2%

Bacitracin
subbacteriostatic concentration (S. pyogenes strain JRS4 [1]): 4 µg/mL

Flavomycin
subbacteriostatic concentration (S. pyogenes strain JRS4 [1]): 1 µg/mL
proportion of cells, phenotype A (no active cell wall synthesis) (S. pyogenes strain JRS4 [3]; [4]): 4 ± 1%
proportion of cells, phenotype B (peripheral growth) (S. pyogenes strain JRS4 [3]; [4]): 20 ± 6%
proportion of cells, phenotype C (septal growth) (S. pyogenes strain JRS4 [3]; [4]): 22 ± 2%
proportion of cells, phenotype D (multiple septa in an elongated cell) (S. pyogenes strain JRS4 [3]; [4]): 54 ± 5%
cells with one or more completed septa among cells with multiple division sites (S. pyogenes strain JRS4 [3]; [5]): 98%

Ramoplanin
subbacteriostatic concentration (S. pyogenes strain JRS4 [1]): 2 µg/mL
proportion of cells, phenotype A (no active cell wall synthesis) (S. pyogenes strain JRS4 [3]; [4]): 27 ± 3%
proportion of cells, phenotype B (peripheral growth) (S. pyogenes strain JRS4 [3]; [4]): 50 ± 4%
proportion of cells, phenotype C (septal growth) (S. pyogenes strain JRS4 [3]; [4]): 23 ± 5%

Vancomycin
subbacteriostatic concentration (S. pyogenes strain JRS4 [1]): 4 µg/mL
proportion of cells, phenotype A (no active cell wall synthesis) (S. pyogenes strain JRS4 [3]; [4]): 34 ± 4%
proportion of cells, phenotype B (peripheral growth) (S. pyogenes strain JRS4 [3]; [4]): 49 ± 4%
proportion of cells, phenotype C (septal growth) (S. pyogenes strain JRS4 [3]; [4]): 17 ± 1%

chlorobiphenyl vancomycin [CBPV]
subbacteriostatic concentration (S. pyogenes strain JRS4 [1]): 0.25 µg/mL
proportion of cells, phenotype A (no active cell wall synthesis) (S. pyogenes strain JRS4 [3]; [4]): 20 ± 1%
proportion of cells, phenotype B (peripheral growth) (S. pyogenes strain JRS4 [3]; [4]): 58 ± 6%
proportion of cells, phenotype C (septal growth) (S. pyogenes strain JRS4 [3]; [4]): 9 ± 2%
proportion of cells, phenotype D′ (multiple peripheral growth sites, axially elongated) (S. pyogenes strain JRS4 [3]; [4]): 13 ± 4%
cells with one or more completed septa among cells with multiple division sites (S. pyogenes strain JRS4 [3]; [5]): 4%

des-N-methyl-leucyl-vancomycin
antibacterial activity (gram-positive strains): totally loses its antibacterial activity

des-N-methylleucyl chlorobiphenyl vancomycin [ΔNCBPV]
subbacteriostatic concentration (S. pyogenes strain JRS4 [1]): 3 µg/mL
proportion of cells, phenotype B (peripheral growth) (S. pyogenes strain JRS4 [3]): 45 ± 12%
proportion of cells, phenotype C (septal growth) (S. pyogenes strain JRS4 [3]): 17 ± 8%
proportion of cells, phenotype D′ (multiple peripheral growth sites, axially elongated) (S. pyogenes strain JRS4 [3]): 24 ± 3%
proportion of cells, phenotype A (no active cell wall synthesis) (S. pyogenes strain JRS4 [3]; [4]): 14 ± 1%
cells with one or more completed septa among cells with multiple division sites (S. pyogenes strain JRS4 [3]; [5]): 52%
